Results reported in patent US20250074871A1, “PHENETHYLAMINES AND METHODS OF PREPARATION THEREOF” (priority 2022, published 2025).
Where two headings read alike, the source gives them in different places.

Key:
Format in all cases: cell-based
5-HT2B receptor = target: T1, 5-HT2B receptor (Homo sapiens, UniProt P41595); test: 5-HT2B Gq dissociation BRET functional assay; details: Table 2; for EC50: at least three replicate trials; for 5-HT2B BRET Eff %: normalized to % 5-HT stimulation
T1 construct: expressed in transfected cells; host or cells: HEK293T
T1 sequence (P41595 whole entry): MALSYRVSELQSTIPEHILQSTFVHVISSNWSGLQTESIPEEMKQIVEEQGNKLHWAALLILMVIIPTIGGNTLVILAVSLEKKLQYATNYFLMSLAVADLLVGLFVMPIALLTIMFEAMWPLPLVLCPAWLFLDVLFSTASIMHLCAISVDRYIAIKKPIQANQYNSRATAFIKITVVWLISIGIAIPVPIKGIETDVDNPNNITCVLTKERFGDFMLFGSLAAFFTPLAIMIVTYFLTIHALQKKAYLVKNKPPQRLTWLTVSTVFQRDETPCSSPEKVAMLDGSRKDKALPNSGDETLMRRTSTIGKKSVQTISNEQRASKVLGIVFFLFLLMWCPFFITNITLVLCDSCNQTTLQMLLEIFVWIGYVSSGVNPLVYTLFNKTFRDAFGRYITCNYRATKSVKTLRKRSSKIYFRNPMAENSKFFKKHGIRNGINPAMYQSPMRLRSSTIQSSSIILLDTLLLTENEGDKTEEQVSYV

5-HT2C receptor = target: T2, 5-HT2C receptor (Homo sapiens, UniProt P28335); test: cell-based; details: Table 2; for EC50: at least three replicate trials, read-out: 5-HT2C BRET EC50; for 5-HT2C BRET Eff %: normalized to % 5-HT stimulation
T2 construct: expressed in transfected cells; host or cells: HEK293T
T2 sequence (P28335 33-458): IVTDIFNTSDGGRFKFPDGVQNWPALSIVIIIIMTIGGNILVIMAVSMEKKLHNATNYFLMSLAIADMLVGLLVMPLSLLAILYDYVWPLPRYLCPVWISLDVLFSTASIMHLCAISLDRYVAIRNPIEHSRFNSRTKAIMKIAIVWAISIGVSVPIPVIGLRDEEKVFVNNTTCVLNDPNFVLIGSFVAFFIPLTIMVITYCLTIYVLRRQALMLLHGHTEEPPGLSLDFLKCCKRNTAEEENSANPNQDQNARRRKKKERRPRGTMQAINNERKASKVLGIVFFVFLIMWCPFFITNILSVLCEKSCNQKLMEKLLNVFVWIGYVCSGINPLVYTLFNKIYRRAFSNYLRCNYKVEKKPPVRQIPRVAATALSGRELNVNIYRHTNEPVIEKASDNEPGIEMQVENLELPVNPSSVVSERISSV

5-HT2A receptor = target: T3, 5-HT2A receptor (Homo sapiens, UniProt P28223); test: 5-HT2A Gq dissociation BRET functional assay; details: Table 2; for EC50: at least three replicate trials; for 5-HT2A BRET Eff %: normalized to % 5-HT stimulation
T3 construct: expressed in transfected cells; host or cells: HEK293T
T3 sequence (P28223 whole entry): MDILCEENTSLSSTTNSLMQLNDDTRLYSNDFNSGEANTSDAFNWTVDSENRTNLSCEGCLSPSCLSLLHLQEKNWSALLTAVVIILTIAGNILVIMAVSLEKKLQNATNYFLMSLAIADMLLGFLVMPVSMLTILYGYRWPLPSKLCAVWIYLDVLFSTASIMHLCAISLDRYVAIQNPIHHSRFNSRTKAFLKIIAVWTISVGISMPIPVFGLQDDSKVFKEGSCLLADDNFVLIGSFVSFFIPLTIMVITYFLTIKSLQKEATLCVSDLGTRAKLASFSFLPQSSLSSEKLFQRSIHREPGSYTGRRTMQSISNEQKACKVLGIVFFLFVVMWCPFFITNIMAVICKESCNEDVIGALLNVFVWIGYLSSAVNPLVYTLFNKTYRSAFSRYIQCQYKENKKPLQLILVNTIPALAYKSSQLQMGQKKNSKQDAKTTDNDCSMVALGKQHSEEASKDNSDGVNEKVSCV

SMILES	EC50 (5-HT2B receptor; read-out: 5-HT2B BRET EC50)	5-HT2B BRET Eff % (5-HT2B receptor)	EC50 (5-HT2C receptor)	5-HT2C BRET Eff % (5-HT2C receptor)	EC50 (5-HT2A receptor; read-out: 5-HT2A BRET EC50)	5-HT2A BRET Eff % (5-HT2A receptor)	5-HT2B BRET EC50 (nM) / Eff % (5-HT2B receptor)	EC50 (5-HT2A receptor; 5-HT2A BRET EC50 (nM))	EC50 (5-HT2B receptor; 5-HT2B BRET EC50 (nM))
COc1cc(C#N)ccc1CCNCC1CC1 [Cpd #133]	0.07 nM	−6%	34400 nM	71%	10700 nM	64%			
COc1cc(Oc2ccccc2)ccc1CCN [Cpd #140]			796 nM	107%		87%	Inactive	2890 nM	
COc1cc(C#N)ccc1CCNCc1ccc(F)cc1F [Cpd #59]			9930 nM	94%		58%	Inactive	14100 nM	
COc1cc(-c2cnoc2)ccc1CCNCc1ccccc1Cl [Cpd #101]			9520 nM	116%	270 nM	65%	Inactive		
N#Cc1ccc(CCNCc2cccc3cc[nH]c23)c(O)c1 [Cpd #71]			10700 nM	92%	1140 nM	59%	Inactive		
Oc1cc(C(F)(F)F)ccc1CCNCc1ccccc1O [Cpd #116]			1.7 nM	100%		89%	Inactive	1 nM	
COc1ccc(CCNCc2ccccc2SC)c(O)c1 [Cpd #119]		108%	114 nM	119%		100%		4.6 nM	2540 nM
COc1cc(C#N)c(F)cc1CCNCc1ccccc1O [Cpd #4]		73%	37.5 nM	115%		99%		2.4 nM	4090 nM
COc1cc(C#N)c(F)cc1CCNCc1ccccc1SC [Cpd #128]		109%	114 nM	118%		99%		7.8 nM	723 nM
COc1cc(C#N)ccc1CCNCc1cccc2ncn(C)c12 [Cpd #73]			0.04 nM	7%	73 nM	4%	Inactive		
COc1cc(Oc2ccccc2)ccc1CCNCc1ccccc1O [Cpd #127]	3.8 nM	−20%	148 nM	104%	27.1 nM	100%			
COc1cc(C#N)ccc1CCNCc1cccc(Cl)c1 [Cpd #13]			1840 nM	96%		69%	Inactive	393 nM	
COc1cc(C#N)ccc1CCN(C)Cc1ccccc1Cl [Cpd #88]		20%	310000 nM	86%		14%		0.01 nM	4980 nM
COc1cc(C#N)ccc1CCNCc1c(Cl)cccc1Cl [Cpd #58]			2170 nM	85%		79%	Inactive	496 nM	
COc1ccc(CCNCc2ccccc2O)c(OC)c1 [Cpd #96, reference compound]			7.2 nM	109%		95%	Inactive	2.3 nM	
